Data taken from PMC9011347, “Small-Molecule Inhibitors Targeting Lipolysis in Human Adipocytes” (Journal of the American Chemical Society, 2022).

Experiments:
[1] = test system: primary human omental adipocytes; assay: Lipolysis in human omental adipocytes; assay type: cell-based; conditions: NG-497 40 µM
Description: Fig. S5: Effect of NG-497 on lipolysis in human omental adipocytes. Omental preadipocytes were obtained from Zen-Bio and differentiated into adipocytes in 96-well trays according to the manufacturer's instructions (OP-F-SL, ZenBio). Cells were then labeled with [9,10-3H] oleic acid (1µCi/well) in full medium for 12 h, washed, and preincubated for 1 h with NG-497 (40 µM) or DMSO (carrier) as a control. Subsequently, the medium was replaced with DMEM containing 2% FA-free BSA and basal as well as Forskolin-stimulated release of radioactivity was monitored in the presence or absence of NG-497. After a 4 h incubation period, cells were lysed in NaOH/SDS (0.3 M/0.1%) and cell-associated radioactivity was determined by liquid scintillation.
Cell-associated radioactivity at time-point 0 (pulse) was calculated as sum of the radioactivity detected in medium and cells after the 4 h chase. The release of fatty acids is shown as % of cell-associated radioactivity.
In the presence of Forskolin, cells lost ~ 20% of the
(b) Time course of FA release during the 4 h chase period. NG-497 reduced basal lipolysis by ~50% and extinguished Forskolin-stimulated lipolysis. Data are presented as mean ± S.D (n = 4). Statistical significance was determined via ANOVA followed by Bonferroni post hoc test (***, p < 0.001).
(1 picture or pasted object on this page, not shown here)

[2] = molecular target: T1, mouse ATGL triple mutant I69F/T93I/T146G (Mus musculus, UniProt Q8BJ56, I69F/T146G/T93I); assay: TAG hydrolase assay, humanized mouse ATGL variants; assay type: biochemical; conditions: I69F/T93I/T146G triple mutant of mouse ATGL
T1 construct: host or cells: Expi293 cells, cell lysate
T1 sequence (Q8BJ56 whole entry I69F/T93I/T146G): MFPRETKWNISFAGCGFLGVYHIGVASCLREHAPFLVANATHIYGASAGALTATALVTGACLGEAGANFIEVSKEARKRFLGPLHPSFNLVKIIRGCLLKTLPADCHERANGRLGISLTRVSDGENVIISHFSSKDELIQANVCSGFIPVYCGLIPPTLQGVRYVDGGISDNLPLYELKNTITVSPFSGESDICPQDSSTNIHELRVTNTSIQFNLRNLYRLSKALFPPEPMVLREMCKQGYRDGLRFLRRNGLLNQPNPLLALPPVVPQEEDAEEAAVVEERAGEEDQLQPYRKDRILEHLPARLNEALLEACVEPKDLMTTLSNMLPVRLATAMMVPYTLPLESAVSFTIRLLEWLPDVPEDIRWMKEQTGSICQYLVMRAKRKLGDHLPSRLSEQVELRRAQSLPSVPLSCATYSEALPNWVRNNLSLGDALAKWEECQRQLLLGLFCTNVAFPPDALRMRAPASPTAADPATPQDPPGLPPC
From the text: (§1) According to our 3D model, aa T93 and C97 are located in close spatial proximity to I69. […] According to our 3D models, the overall topologies of the minimal active domains of mouse and human ATGL are identical, with S47 and D166 as active site residues in close spatial proximity (depicted as green sticks, Figure 6d,f). Residues S10–L178 (depicted in blue for mouse and pink for human) build a relatively compact half of the protein, while residues K179–L254 (depicted in gray) are less compact. The minimal active domain of both mouse and human ATGL is predicted to have a large, two-pronged fork cavity. The “left,” shallow prong is formed mainly by residues S10–L17 and S170–L254. The “right,” deeper prong is formed by five different helices (depicted in light blue and pink for mouse and human ATGL, respectively). The first helix is assembled by the N-terminal residues G16-E31. […] form three other helices and residues L137–F147 assemble a short helix with an adjacent unstructured stretch. In the orientation shown in Figure 6d,f, the active site is located in the middle part of the cavity connecting both prongs to the exterior. I69, C97, T146, and their human counterparts F69, F97, and G146, are all located in the right prong of the cavity. T(G)146 is located near the active site, while I(F)69 and C(F)97 are located on the opposite side of the cavity in close spatial proximity (Figure 6e,g). Our 3D homology models indicate that these residues change the widths and depths of the right prong, which can explain their crucial contribution to inhibitor selectivity and efficacy.
(§2) Figure 6 Identification of the molecular scaffold determining species selectivity. (a) Schematic view of mouse ATGL variants, which are sensitive to NG-497 inhibition. Humanized aa are indicated in red and nonidentical aa are indicated in dark blue. (b) Dose-dependent inhibition of the I69F/T146G double mutant, the I69F/T93I/C97F/T146G quadruple mutant, and human ATGL. (c) Dose-dependent inhibition of triple mutants I69F/T93I/T146G and I69F/C97F/T146G, and human ATGL. IC50 values are shown in the insets. […]

[3] = molecular target: T2, mouse ATGL I69F/T93I/C97F/T146G quadruple mutant (Mus musculus, UniProt Q8BJ56, C97F/I69F/T146G/T93I); assay: TAG hydrolase assay, humanized mouse ATGL variants; assay type: biochemical; conditions: I69F/T93I/C97F/T146G quadruple mutant of mouse ATGL
T2 construct: host or cells: Expi293 cells, cell lysate
T2 sequence (Q8BJ56 whole entry I69F/T93I/C97F/T146G): as the sequence (Q8BJ56 whole entry I69F/T93I/T146G) above, with C97F counted along it
From the text: as §1, §2

[4] = molecular target: T3, mouse ATGL triple mutant I69F/C97F/T146G (Mus musculus, UniProt Q8BJ56, C97F/I69F/T146G); assay: TAG hydrolase assay, humanized mouse ATGL variants; assay type: biochemical; conditions: I69F/C97F/T146G triple mutant of mouse ATGL
T3 construct: host or cells: Expi293 cells, cell lysate
T3 sequence (Q8BJ56 whole entry I69F/C97F/T146G): as the sequence (Q8BJ56 whole entry I69F/T93I/T146G) above, with I93T, C97F counted along it
From the text: as §1, §2

CCOc1ccc(-c2cc(OC)cc(C(=O)OC(C)C)n2)cc1 [NG-497]
Forskolin-induced loss of cell-associated radiolabel (~ 20%) ([1]; 4 h): completely prevented | Forskolin-induced TAG degradation and FA release (Forskolin-stimulated lipolysis) ([1]; 4 h chase): extinguished | reduction of basal lipolysis ([1]; 4 h chase): ~ 50% | IC50 [2]: 9300 nM | IC50 [3]: 1600 ± 100 nM | IC50 [4]: 1000 nM
